This note sets out measurements from patent US9844531B2, “Methods of maintaining and improving muscle function” (ABBOTT LABORATORIES, priority 2013, dated 2017).

The subject of assay [1] is myostatin in C2C12 myotubes. The assay can be described thus: Western blot of myostatin expression in serum starved C2C12 myotubes. The format is cell-based. As to conditions: for Myostatin (% control): 24 hrs, NC = 100, No Serum = 315. As for the experimental part:
Example 5 illustrates the effect of EGCg on expression of myostatin in serum starved C2C12 myotubes. C2C12 myoblasts were passaged in DMEM supplemented with 10% fetal calf serum (FCS), 1% glutamine, and 1% penicillin-streptomycin under an atmosphere of 10% CO2 in air at 37° C. When the myoblasts reached about 80% confluency, they were differentiated into myotubes in DMEM containing 2% horse serum (HS), with medium changes every 2 days. Differentiation was complete in 5-7 days, and the myotubes remained viable for a further 4-5 days.
To induce protein degradation in the myotubes, HS-supplemented DMEM media was replaced with DMEM medium without any serum for 24 hrs, while the negative control group of myotubes (“NC”) was not deprived of serum (i.e., the NC group was re-fed with DMEM media containing 2% HS). Myotubes were treated with EGCg (10 μM and 25 μM) over this serum starvation period. Western blot analysis was carried out on cell lysates as described in Example 4.
FIG. 4 and Table 5 illustrate the expression of myostatin in the non-serum starved control cells (“NC”), serum starved control cells (“No Serum”), and EGCg treated serum starved cells (“No Serum+10 μM EGCg” and “No Serum+25 μM EGCg”). The densitometric analysis was based on three separate blots. Results are expressed as mean plus S.E.M., and statistical analysis between groups was determined by one-way ANOVA followed by Tukey's test. The difference from the “NC” group is indicated as “a” (p<0.01), while the difference from the “No Serum” group is indicated as “b” (p<0.01).
A general note: In western blotting, separated proteins are transferred to a membrane and probed.

The subject of assay [2] is gastrocnemius muscle. The assay can be described thus: Gastrocnemius muscle wet weight in the aged SD rat model of sarcopenia. The format is in vivo, Sprague Dawley rat. As to conditions: 8 weeks. The protocol: (§1) Example 4 illustrates the effect of 8 weeks of dietary EGCg supplementation in the aged Sprague Dawley (SD) rat model of sarcopenia. More particularly, the level of myostatin in gastrocnemius muscle lysates of young SD rats (“young”), aged SD rats (“old”), and aged SD rats administered EGCg (“old-EGCg”) was analyzed and compared.
In Vivo Study—EGCg Supplementation-Male SD rats (20 months old) were purchased from Harlan (Indianapolis, Ind.). The rats were single-housed in cages with hardwood chip bedding and were exposed to a 12-hour light cycle. For 1 week, rats had ad libitum access to purified diet AIN-93M (Research Diets, #D10012M) and water during adaptation to the animal facility. The AIN-93M diet typically comprises about 13% (by weight) protein, about 73% (by weight) carbohydrate, and about 4% (by weight) fat, and has an energy content of about 3.77 kcal/gram. Subsequently, the rats were given ad libitum access to AIN-93M diet supplemented with EGCg (>95%) (Teavigo, DSM) at 200 mg/kg body weight (n=12) (“old-EGCg” or “EGCg supplemented”) or control AIN-93 diet (n=11) (“old” or “Control”) for 8 weeks.
Preparation of Muscle Lysates-Whole gastrocnemius muscles were collected from euthanized rats, weighed, and flash-frozen on liquid nitrogen and stored in aluminum foil at −80° C. Subsequently, the gastrocnemius muscle samples were partially thawed on dry ice. Approximately 200 mg of tissue was obtained from each muscle sample by mechanical biopsy punch. The specimens were quickly pulverized on liquid nitrogen and transferred to a 15 mL conical tube and weighed. A mild, detergent-free lysis buffer (9×) was added to the dried specimen in the conical tube. 9× Lysis buffer (50 mM Tris.HCl, 2 mM EDTA, pH 7.4/NaOH) was supplemented with a mammalian protease inhibitor cocktail (Sigma-Aldrich, Inc.) at a 1:200 dilution and stored on ice. The specimens were then vortexed for 10 seconds ahead of homogenization at 25×1000 rpm for approximately 10 seconds. The lysate was vortexed again for 10 seconds and transferred to a 1.5 mL tube. […]

In assay [3] the test system is interleukin-1A (IL1A). The assay can be described thus: IL1A level after 8 weeks of dietary EGCg supplementation in aged SD rats (multi-analyte profiling). The format is in vivo, Sprague Dawley rat. As to conditions: for IL1A: gastrocnemius muscle lysate, 22 mos at sacrifice. As for the experimental part: (§2) Example 3 illustrates the effect of 8 weeks of dietary EGCg supplementation on skeletal muscle biomarkers in the aged Sprague Dawley (SD) rat model of sarcopenia. More particularly, gastrocnemius muscle lysates of aged SD rats administered EGCg were analyzed for changes in various skeletal muscle biomarkers.
(§3) In Vivo Study 1—Aged (25 Months Old) Vs. Adult (13 Months Old)-Male SD rats (12 months old; adult rats; Dataset A) and male SD rats (24 months old; aged rats; Dataset B) were purchased from Harlan (Indianapolis, Ind.). The rats were single-housed in cages with hardwood chip bedding and were exposed to a 12-hour light cycle. At receipt, rats had ad libitum access to natural chow (Teklad Global 18% Protein Rodent Diet, catalog #2018S, Harlan) and water during adaptation to the animal facility. Adult rats (Dataset A) were 13 months old at the time of sacrifice, and aged rats (Dataset B) were 25 months old at the time of sacrifice. The right gastrocnemius muscle of the rats were collected and flash-frozen on liquid nitrogen.
(§4) In Vivo Study 2—EGCg Supplementation-Male SD rats (19 months old) were purchased from Harlan (Indianapolis, Ind.). The rats were single-housed in cages with hardwood chip bedding and were exposed to a 12-hour light cycle. At receipt, rats had ad libitum access to purified diet AIN-93M (Research Diets, #D10012M) and water during adaptation to the animal facility. Subsequently, the rats were given ad libitum access to AIN-93M diet supplemented with EGCg-rich (>95%) Teavigo® at 200 mg/kg body weight (Dataset C) for 8 weeks.
(§5) In Vivo Study 3—EGCg Supplementation-Male SD rats (19 months old) were purchased from Harlan (Indianapolis, Ind.). The rats were single-housed in cages with hardwood chip bedding and were exposed to a 12-hour light cycle. At receipt, rats had ad libitum access to purified diet AIN-93M (Research Diets, #D10012M) and water during adaptation to the animal facility. Subsequently, the rats were given ad libitum access to either AIN-93M diet (Dataset D) or AIN-93M diet supplemented with EGCg-rich (>95%) Teavigo® at 50 mg/kg body weight (Dataset E) for 8 weeks.
(§6) Preparation of Muscle Lysates-Whole gastrocnemius muscles were collected from euthanized rats (Dataset A, Dataset B, Dataset C, Dataset D, and Dataset E) and flash-frozen on liquid nitrogen and stored in aluminum foil at −80° C. Subsequently, the gastrocnemius muscle samples were partially thawed on dry ice. Approximately 200 mg of tissue was obtained from each muscle sample by mechanical biopsy punch. The specimens were quickly pulverized on liquid nitrogen and transferred to a 15 mL conical tube and weighed. A mild, detergent-free lysis buffer (9×) was added to the dried specimen in the conical tube. 9× Lysis buffer (50 mM Tris.HCl, 2 mM EDTA, pH 7.4/NaOH) was supplemented with a mammalian protease inhibitor cocktail (Sigma-Aldrich, Inc.) at a 1:200 dilution and stored on ice. The specimens were then vortexed for 10 seconds ahead of homogenization at 25×1000 rpm for approximately 10 seconds. The lysate was vortexed again for 10 seconds and transferred to a 1.5 mL tube. Lysates were centrifuged/clarified for 5 minutes at 11000 rpm at 4° C. in a standard table-top Eppendorf centrifuge. Supernatant (1 mL) was aliquotted to a 2 mL cryotube and stored at −80° C. Lysates were analyzed by Myriad Rules Based Medicine (Austin, Tex.) on the RodentMAP® v.2.0 Antigens and Rat METABOLIC® multi-analyte profiling platforms.

Assay [4] has as its system VEGF. The assay can be described thus: VEGF level after 8 weeks of dietary EGCg supplementation in aged SD rats (multi-analyte profiling). The format is in vivo, Sprague Dawley rat. The following applies: for VEGF: gastrocnemius muscle lysate, 22 mos at sacrifice. As for the experimental part:
as §2, §3, §4, §5, §6

Assay [5] concerns myostatin. The assay can be described thus: Western blot of myostatin in gastrocnemius muscle lysates of aged SD rats. The format is in vivo, Sprague Dawley rat. As to conditions: EGCg 200 mg/kg body weight, 8 weeks. The protocol:
as §1
In Vivo Study—EGCg Supplementation-Male SD rats (20 months old) were purchased from Harlan (Indianapolis, Ind.). The rats were single-housed in cages with hardwood chip bedding and were exposed to a 12-hour light cycle. For 1 week, rats had ad libitum access to purified diet AIN-93M (Research Diets, #D10012M) and water during adaptation to the animal facility. The AIN-93M diet typically comprises about 13% (by weight) protein, about 73% (by weight) carbohydrate, and about 4% (by weight) fat, and has an energy content of about 3.77 kcal/gram. Subsequently, the rats were given ad libitum access to AIN-93M diet supplemented with EGCg (>95%) (Teavigo, DSM) at 200 mg/kg body weight (n=12) (“old-EGCg” or “EGCg supplemented”) or control AIN-93 diet (n=11) (“old” or “Control”) for 8 weeks. […]
Western blot analysis was carried out using anti-myostatin antibodies (Anti-GDF8/Myostatin antibody-Cat.# ab996-Abcam). […] Blots were scanned by densitometry to quantitate differences. […]

Where [6] appears, read: 8 weeks of dietary EGCg supplementation, aged SD rats.
[7] abbreviates: Dataset C, EGCg 200 mg/kg bw in diet, 8 weeks, Quantitative Assay I.
Where [8] appears, read: Dataset E, EGCg 50 mg/kg bw in diet, 8 weeks, Quantitative Assay II.
[9] abbreviates: muscle, EGCg 50 mg/kg bw v. control diet, 22 mos, n.s.
The mark [10] stands for this setting: serum, EGCg 200 mg/kg bw, 8 weeks, n.s.

Several values for one entry are separate records, joined by “and”; a condition that tells them apart may be missing. Equal entries are not always repeated. Entries after “also recorded” stand apart in the source; their conditions may differ.

For epigallocatechin-3-gallate [EGCg], the “Myostatin (% control)” value in assay [1] (No Serum + 10 μM EGCg) worked out at 55 % control; in assay [1] (No Serum + 25 μM EGCg), 43 % control. Further, in assay [1] (serum starved C2C12 myotubes, EGCg 10 μM and 25 μM), the “myostatin levels compared to the No Serum group (in words)” value is listed as “significantly lower; also recorded: decrease”. The “gastrocnemius muscle wet weight compared to Control rats (in words)” value in assay [2] (EGCg 200 mg/kg body weight) is reported as “significant increase”. Also, the “Muscle wet weight % change from control” value in assay [2] (gastrocnemius, EGCg 200 mg/kg body weight in diet) is “+5.12%”. Also, the “Muscle Wet Weight (grams)” value in assay [2] (gastrocnemius, EGCg 200 mg/kg body weight in diet, n=12, p < 0.05 compared to Control) was determined as 3.00 ± 0.03 grams. In addition, in assay [3] (setting [6]), the “level of IL1A in gastrocnemius muscle (in words)” value is recorded as “significant decrease”. Further, the entries for the “IL1A” value in assay [3] (setting [7]) and in assay [3] (setting [8]) were 14.3 pg/mL and 28.0 pg/mL, respectively. Moreover, in assay [3] (setting [9]), the “IL1A % change Dataset E/Dataset D” value is on record as −12% (n.s.). Further, the “IL1A, Serum, Dataset C (EGCg Supplemented - 22 mos.) v. Dataset B (25 mos.)” value in assay [3] (setting [10]) is on record as −8% (n.s.). In addition, the “level of VEGF in gastrocnemius muscle (in words)” value in assay [4] (setting [6]) is “significant increase”. In addition, the “VEGF” value in assay [4] (setting [7]) worked out at 229 pg/mL; in assay [4] (setting [8]) it was 479 pg/mL. The “VEGF % change Dataset E/Dataset D” value in assay [4] (setting [9]) is recorded as −5% (n.s.). Further, in assay [4] (setting [10]), the “VEGF, Serum, Dataset C (EGCg Supplemented - 22 mos.) v. Dataset B (25 mos.)” value is on record as −15% (n.s.). In addition, the “intramuscular myostatin levels compared to old rats without EGCg (in words)” value in assay [5] (western blot) is on record as “decrease”. Moreover, the “Myostatin (% cage control)” value in assay [5] (Old-EGCg rats (22 months old), single rats (ID 3, 6, 9), densitometry, Old rats 700-800) is 80 % cage control and 140 % cage control and 120 % cage control.
